Experimental data reported in patent publication US8816085B2 (Takeda GmbH, priority 2009, dated 2014).

Molecular target: T1, PDE5A1 (human PDE5 from platelets) (Homo sapiens, UniProt O76074)
T1 construct: from tissue; host or cells: platelets from fresh blood of human donors (10,000 g supernatant of sonified platelets)
Experiment: Inhibition of type 5 phosphodiesterase (PDE5) activity, modified SPA test
Format: biochemical
Conditions: PDE5-containing human platelet lysate, 0.5 μM cGMP, value classes, read-out: PDE5A1 inhibitory values [measured as −logIC50 (mol/l)] (converted)
In short: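 Enzyme source: human platelet lysate (10,000 g supernatant), with 1 μM motapizone and 10 nM PDE2 inhibitor present. SPA format in 20 mM Tris pH 7.4, 5 mM Mg2+, 0.5 μM cGMP with [3H]cGMP tracer; 5 min preincubation at 37 °C, 15 min reaction, stopped with IBMX-containing beads. IC50 by non-linear regression.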

Structure (SMILES)	IC50
COCC(=O)N1CCC(NC(=O)c2c(C)[nH]c3c(-c4cc(F)c(OC)cc4OCC4CC4)ccnc23)CC1 [Example E78, 7-[2-(Cyclopropylmethoxy)-5-fluoro-4-methoxyphenyl]-N-[1-(methoxyacetyl)piperidin-4-yl]-2-methyl-1H-pyrrolo[3,2-b]pyridine-3-carboxamide]	< 1 nM
Cc1[nH]c2c(-c3c(OCC4CC4)ccc4c3OCO4)ccnc2c1C(=O)N[C@H]1CC[C@@H](NC(=O)CO)CC1 [Example F04, 7-[5-(Cyclopropylmethoxy)-1,3-benzodioxol-4-yl]-N-[cis-4-(glycoloylamino)cyclohexyl]-2-methyl-1H-pyrrolo[3,2-b]pyridine-3-carboxamide]	< 1 nM
Cc1[nH]c2c(-c3c(OCC4CC4)ccc4c3OCO4)ccnc2c1C(=O)N[C@H]1CC[C@@H](NC(=O)[C@H](C)O)CC1 [Example F05, 7-[5-(Cyclopropylmethoxy)-1,3-benzodioxol-4-yl]-N-(cis-4-{[(2S)-2-hydroxypropanoyl]amino}cyclohexyl)-2-methyl-1H-pyrrolo[3,2-b]pyridine-3-carboxamide]	< 1 nM
Cc1[nH]c2c(-c3ccc(F)cc3OCC3CC3)ccnc2c1C(=O)NC1CCN(C(=O)[C@H](C)O)CC1 [Example F07, 7-[2-(Cyclopropylmethoxy)-4-fluorophenyl]-N-{1-[(2S)-2-hydroxypropanoyl]piperidin-4-yl}-2-methyl-1H-pyrrolo[3,2-b]pyridine-3-carboxamide]	1 to 10 nM
Cc1[nH]c2c(-c3ccc(F)cc3OCC3CC3)ccnc2c1C(=O)N[C@H]1CC[C@H](NC(=O)CO)CC1 [Example F08, 7-[2-(Cyclopropylmethoxy)-4-fluorophenyl]-N-{trans-4-[(hydroxyacetyl)amino]cyclohexyl}-2-methyl-1H-pyrrolo[3,2-b]pyridine-3-carboxamide]	1 to 10 nM
Cc1[nH]c2c(-c3ccc(F)cc3OCC3CC3)ccnc2c1C(=O)N[C@H]1CC[C@H](NC(=O)[C@H](C)O)CC1 [Example F09, 7-[2-(Cyclopropylmethoxy)-4-fluorophenyl]-N-(trans-4-{[(2S)-2-hydroxypropanoyl]amino}cyclohexyl)-2-methyl-1H-pyrrolo[3,2-b]pyridine-3-carboxamide]	< 1 nM
Cc1[nH]c2c(-c3ccc(F)cc3OCC3CC3)ccnc2c1C(=O)N[C@H]1CC[C@@H](NC(=O)CO)CC1 [Example F10, 7-[2-(Cyclopropylmethoxy)-4-fluorophenyl]-N-{cis-4-[(hydroxyacetyl)amino]cyclohexyl}-2-methyl-1H-pyrrolo[3,2-b]pyridine-3-carboxamide]	1 to 10 nM
Cc1[nH]c2c(-c3ccc(F)cc3OCC3CC3)ccnc2c1C(=O)N[C@H]1CC[C@@H](NC(=O)[C@H](C)O)CC1 [Example F11, 7-[2-(Cyclopropylmethoxy)-4-fluorophenyl]-N-(cis-4-{[(2S)-2-hydroxypropanoyl]amino}cyclohexyl)-2-methyl-1H-pyrrolo[3,2-b]pyridine-3-carboxamide]	1 to 10 nM
Cc1[nH]c2c(-c3cc(F)ccc3OCC3CC3)ccnc2c1C(=O)NC1CCN(C(=O)CO)CC1 [Example F12, 7-[2-(Cyclopropylmethoxy)-5-fluorophenyl]-N-[1-(hydroxyacetyl)piperidin-4-yl]-2-methyl-1H-pyrrolo[3,2-b]pyridine-3-carboxamide]	1 to 10 nM

More lines, now with the values ahead:

IC50	Structure (SMILES)
< 1 nM	COc1cc(-c2ccnc3c(C(=O)N[C@H]4CC[C@@H](NC(C)=O)CC4)c(C)[nH]c23)c(OCC2CC2)cc1F [Example E67, N-[cis-4-(Acetylamino)cyclohexyl]-7-[2-(cyclopropylmethoxy)-4-fluoro-5-methoxyphenyl]-2-methyl-1H-pyrrolo[3,2-b]pyridine-3-carboxamide]
< 1 nM	CCC(=O)N[C@H]1CC[C@@H](NC(=O)c2c(C)[nH]c3c(-c4cc(OC)c(F)cc4OCC4CC4)ccnc23)CC1 [Example E68, 7-[2-(Cyclopropylmethoxy)-4-fluoro-5-methoxyphenyl]-2-methyl-N-[cis-4-(propanoylamino)cyclohexyl]-1H-pyrrolo[3,2-b]pyridine-3-carboxamide]
< 1 nM	COCC(=O)N[C@H]1CC[C@@H](NC(=O)c2c(C)[nH]c3c(-c4cc(OC)c(F)cc4OCC4CC4)ccnc23)CC1 [Example E69, 7-[2-(Cyclopropylmethoxy)-4-fluoro-5-methoxyphenyl]-N-{cis-4-[(methoxyacetyl)amino]cyclohexyl}-2-methyl-1H-pyrrolo[3,2-b]pyridine-3-carboxamide]
< 1 nM	COc1cc(OCC2CC2)c(-c2ccnc3c(C(=O)NC4CCN(C(C)=O)CC4)c(C)[nH]c23)cc1F [Example E76, N-(1-Acetylpiperidin-4-yl)-7-[2-(cyclopropylmethoxy)-5-fluoro-4-methoxyphenyl]-2-methyl-1H-pyrrolo[3,2-b]pyridine-3-carboxamide]
< 1 nM	CCC(=O)N1CCC(NC(=O)c2c(C)[nH]c3c(-c4cc(F)c(OC)cc4OCC4CC4)ccnc23)CC1 [Example E77, 7-[2-(Cyclopropylmethoxy)-5-fluoro-4-methoxyphenyl]-2-methyl-N-(1-propionylpiperidin-4-yl)-1H-pyrrolo[3,2-b]pyridine-3-carboxamide]
< 1 nM	COc1cc(OCC2CC2)c(-c2ccnc3c(C(=O)N[C@H]4CC[C@H](NC(C)=O)CC4)c(C)[nH]c23)cc1F [Example E79, N-(trans-4-Acetamidocyclohexyl)-7-[2-(cyclopropylmethoxy)-5-fluoro-4-methoxyphenyl]-2-methyl-1H-pyrrolo[3,2-b]pyridine-3-carboxamide]
< 1 nM	CCC(=O)N[C@H]1CC[C@H](NC(=O)c2c(C)[nH]c3c(-c4cc(F)c(OC)cc4OCC4CC4)ccnc23)CC1 [Example E80, 7-[2-(Cyclopropylmethoxy)-5-fluoro-4-methoxyphenyl]-2-methyl-N-[trans-4-(propionylamino)cyclohexyl]-1H-pyrrolo[3,2-b]pyridine-3-carboxamide]
< 1 nM	COCC(=O)N[C@H]1CC[C@H](NC(=O)c2c(C)[nH]c3c(-c4cc(F)c(OC)cc4OCC4CC4)ccnc23)CC1 [Example E81, 7-[2-(Cyclopropylmethoxy)-5-fluoro-4-methoxyphenyl]-N-{trans-4-[(methoxyacetyl)amino]cyclohexyl}-2-methyl-1H-pyrrolo[3,2-b]pyridine-3-carboxamide]
< 1 nM	COc1cc(OCC2CC2)c(-c2ccnc3c(C(=O)N[C@H]4CC[C@@H](NC(C)=O)CC4)c(C)[nH]c23)cc1F [Example E82, N-(cis-4-Acetamidocyclohexyl)-7-[2-(cyclopropylmethoxy)-5-fluoro-4-methoxyphenyl]-2-methyl-1H-pyrrolo[3,2-b]pyridine-3-carboxamide]
< 1 nM	CCC(=O)N[C@H]1CC[C@@H](NC(=O)c2c(C)[nH]c3c(-c4cc(F)c(OC)cc4OCC4CC4)ccnc23)CC1 [Example E83, 7-[2-(Cyclopropylmethoxy)-5-fluoro-4-methoxyphenyl]-2-methyl-N-[cis-4-(propionylamino)cyclohexyl]-1H-pyrrolo[3,2-b]pyridine-3-carboxamide]
< 1 nM	COCC(=O)N[C@H]1CC[C@@H](NC(=O)c2c(C)[nH]c3c(-c4cc(F)c(OC)cc4OCC4CC4)ccnc23)CC1 [Example E84, 7-[2-(Cyclopropylmethoxy)-5-fluoro-4-methoxyphenyl]-N-{cis-4-[(methoxyacetyl)amino]cyclohexyl}-2-methyl-1H-pyrrolo[3,2-b]pyridine-3-carboxamide]
